Values after ≈ are worked out from the molar mass of the structure shown. Read-outs that look alike come from different tables or passages of the source.
Assay: Solubility of compound 1 in solvent (100 mg blended with 10 ml solvent, supernatant measured by HPLC)
Format: physicochemical
Conditions: for solubility thermodynamic: thermodynamic from solid, read-out: Compound 1 concentration; for solubility thermodynamic / Compound 1 concentration: room temperature
Protocol: After thoroughly blending 100 mg of compound 1 with 10 ml each of 0.05 N hydrochloric acid solution, methanol, ethanol, propylene carbonate, polysorbate 80, polyethylene glycol 400, polyethylene glycol 300, glycerin, dimethylacetamide or propylene glycol at room temperature, the supernatant obtained by centrifugal separation of each mixture was separated off and used as a pharmaceutical solution. Comparative control samples were also prepared by thoroughly dissolving 100 mg of compound 1 with 10 ml each of purified water, sodium acetate buffer solution at pH 4.0 or sodium phosphate buffer solution at pH 6.8 at room temperature, and separating off the supernatant obtained by centrifugal separation. […] All of the samples of the present invention contained dissolved compound 1 at a concentration of 5 mg/ml or greater, which is a sufficient concentration for an injection. On the other hand, all of the comparative control samples contained dissolved compound 1 only at a concentration of 0.2 mg/ml or less, and therefore the concentration necessary for an injection could not be guaranteed.

concentration of dissolved compound 1 (all of the comparative control samples): ≤ 200 µg/mL | concentration of dissolved compound 1 (all of the samples of the present invention): ≥ 5000 µg/mL | solubility thermodynamic (purified water, solvent: water, comparative control sample): 40 µg/mL (≈ 106 µM) | solubility thermodynamic (simulated gastric fluid, solvent: 0.05 N hydrochloric acid solution): 14000 µg/mL (≈ 37200 µM) | solubility thermodynamic (sodium acetate buffer solution, aqueous buffer, solvent: sodium acetate buffer, pH 4.0, comparative control sample): 200 µg/mL (≈ 531 µM) | solubility thermodynamic (sodium phosphate buffer solution, aqueous buffer, solvent: phosphate buffer, pH 6.8, comparative control sample): 40 µg/mL (≈ 106 µM) | Compound 1 concentration (solvent: dimethylacetamide): >100 mg/mL | Compound 1 concentration (solvent: ethanol): 5.4 mg/mL | Compound 1 concentration (solvent: glycerin): 10.0 mg/mL | Compound 1 concentration (solvent: methanol): 9.9 mg/mL | Compound 1 concentration (solvent: polyethylene glycol 300): 69.1 mg/mL | Compound 1 concentration (solvent: polyethylene glycol 400): 77.7 mg/mL | Compound 1 concentration (solvent: polysorbate 80): 29.9 mg/mL | Compound 1 concentration (solvent: propylene carbonate): 17.5 mg/mL | Compound 1 concentration (solvent: propyleneglycol): 54.6 mg/mL
Compound: Nc1ccccc1NC(=O)c1ccc(CNC(=O)OCc2cccnc2)cc1 [Compound 1]
